Square brackets hold non-standard residues; d marks the D form. Peptide text beside a SMILES is read from it. pY = N[C@@H](Cc1ccc(OP(=O)(O)O)cc1)C(=O)O
What was measured:
reduced Csk L-SH2 = biological target: T1, reduced Csk L-SH2 (Homo sapiens, UniProt P41240); experiment: Fluorescence titration of reduced Csk L-SH2 with Cbp peptide; assay type: binding; settings: 10-residue Cbp peptide, Csk SH2, redox form not given
T1 construct: made in house
T1 sequence (P41240 73-178): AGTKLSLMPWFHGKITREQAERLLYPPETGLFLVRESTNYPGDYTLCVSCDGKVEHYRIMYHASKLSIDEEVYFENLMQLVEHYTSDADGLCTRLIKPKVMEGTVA
Method: Fluorescence titrations were performed at 25 °C in 3 mL of 50 mmol/L Tris-HCl (pH 7.5) using excitation and emission wavelengths of 288 nm and 320 nm, respectively. The 10-residue synthetic phosphopeptide corresponding to the specific SH2-binding site in Cbp was titrated with the L-SH2 sample. The typically adopted protein concentration is 5 μmol/L. For the denaturation experiments, ultrapure guanidine hydrochloride (Sigma S0933) was used. Proteins were exposed to guanidine hydrochloride concentrations ranging from 0 to 6 mol/L at 0.1–0.2 mol/L steps. The concentrations of guanidine hydrochloride of the solutions were determined by measuring the index of refraction and by using the following equation: d/d 0 = 1 + 0.2710 W + 0.0330 W ^2 (Tanford et al. [1966]), where W is the weight fraction of guanidine hydrochloride in the solution, d is the density of the solution, and d 0 is the density of water. Reversibility of the guanidine hydrochloride-induced unfolding reaction and the time necessary to re-establish equilibrium were determined by diluting a concentrated protein solution containing 6 mol/L guanidine hydrochloride into the buffer and by monitoring the fluorescence spectrum of the protein as a function of time. […] F unf values were calculated from the linear extrapolation of the pre- and post-unfolding baselines. […]

Csk L-SH2 disulfide bond = experiment: NMR-monitored reduction of oxidized SH2 by DTT; assay type: physicochemical, human; settings: 10 mmol/L DTT, pH 7.5, NMR
Source text: During purification of the Csk L-SH2 domain, 50 mmol/L DTT was used to elute the protein from the chitin resin. The L-SH2 was used in reduced form, given that DTT was used to cleave L-SH2 from its intein fusion partner. Following elution of the protein from the ion exchange column, the L-SH2 became a mixture of the reduced and oxidized forms. The fully oxidized form was obtained by exposing the protein to air for several days.
Fig. 3 Comparison of the oxidized and reduced form of SH2. A Comparison of ^1H–^15N HSQC of oxidized (red) and reduced (green) SH2. B Combined chemical shift change of oxidized and reduced form SH2. The difference was calculated as ∆δ tot = [(∆δ H)^2 + (0.154∆δ N)^2]^1/2. […]
All NMR experiments were performed at 298 K on 800 MHz spectrometers equipped with triple-resonance cryoprobes. […] The combined change in chemical shift of a particular residue upon ligation with the kinase domain was calculated as ∆δ = [(∆δ H)^2 + (0.154∆δ N)^2]^1/2, where ∆δ H and ∆δ N correspond to the changes in amide proton and nitrogen chemical shift, respectively. The weight factor for ^1H and ^15N is determined from the ratio of the average variances of the amide nitrogen and proton chemical shifts observed for the 20 common amino acid residues in proteins deposited in the BioMagResBank (Mulder et al. [1999]). […]

full-length Csk = settings: ref Kemble and Sun [2009]; cited from earlier work
Source text: Disulfide bonds are mostly found in secretory proteins and in extracellular domains of membrane proteins. Cytosolic proteins, which contain cysteine residues that are in close proximity to each other, may function as oxidation sensors; when the reductive potential of the cell fails, they oxidize and trigger cellular response mechanisms (Sevier and Kaiser [2002]). Mills et al. studied the unique disulfide bond of Csk SH2 that is absent in other known SH2 domains.

Row | SMILES | affinity of Cbp peptide for Csk SH2 (in words) (reduced Csk L-SH2) | time sufficient to reduce the SH2 domain (Csk L-SH2 disulfide bond) [h] | activation of Csk (full-length Csk)
1 | CC[C@H](C)[C@H](N)C(=O)N[C@@H](CO)C(=O)N[C@@H](C)C(=O)N[C@@H](CCSC)C(=O)N[C@@H](Cc1ccc(OP(=O)(O)O)cc1)C(=O)N[C@@H](CO)C(=O)N[C@@H](CO)C(=O)N[C@H](C(=O)N[C@@H](CC(N)=O)C(=O)N[C@@H](CCCCN)C(=O)O)C(C)C [Cbp peptide] (H-ISAM[pY]SSVNK-OH) | affinity at the µmol/L level | – | –
2 | O[C@@H](CS)[C@@H](O)CS [DTT, reference compound] | – | ≤ 10 | mildly activated
